Measured values reported in patent US20220411419A1, “SMALL MOLECULE MODULATORS OF MHC-I” (RetroVirox, Inc., priority 2018, published 2022).

Key:
[1] = system: downmodulation of MHC-I molecules expressed on the surface of HIV infected SupT1 cells; assay: cells; settings: for EC50: Human immunodeficiency virus 1, SUP-T1, read-out: EC50 for inhibition of MHC-I downmodulation utilizing the R1 parameter; for activity at 100 µM: Human immunodeficiency virus 1, SUP-T1, read-out: R1 @ 100 μM (R1 value for MHC-I downmodulation as % of the vehicle control)
[2] = in vitro; settings: human, uninfected SupT1 cells

Row | SMILES | EC50 [1] [µM] | CC50 at 48 h [2] [µM] | activity at 100 µM [1] [%] | CC50 [2] [µM]
1 | Cc1ncccc1OCC(=O)N(C)c1nc2c(s1)CCCC2 [Compound 137, N-Methyl-2-((2-methylpyridin-3-yl)oxy)-N-(4,5,6,7-tetrahydrobenzo[d]thiazol-2-yl)acetamide] | > 25 | 12 | – | –
2 | COc1cc(C)ccc1OCC(=O)N(C)c1nc2c(s1)CCCC2 [Compound 115, 2-(2-Methoxy-4-methylphenoxy)-N-methyl-N-(4,5,6,7-tetrahydrobenzo[d]thiazol-2-yl)acetamide] | 1.8 | > 125 | – | –
3 | CN(C(=O)COc1ccccc1OC(F)(F)F)c1nc2c(s1)CCCC2 [Compound 161, N-Methyl-N-(4,5,6,7-tetrahydrobenzo[d]thiazol-2-yl)-2-(2-(trifluoromethoxy)phenoxy)acetamide] | 0.15 | > 125 | – | –
4 | COc1ccccc1OCC(=O)Nc1nc2c(Cl)cccc2s1 [Compound 188, N-(4-Chlorobenzo[d]thiazol-2-yl)-2-(2-methoxyphenoxy)acetamide] | ≥ 10 | > 100 | 37 | > 100
5 | COc1cccc(F)c1OCC(=O)N(C)c1nc2c(s1)CCCC2 [Compound 124, 2-(2-Fluoro-6-methoxyphenoxy)-N-methyl-N-(4,5,6,7-tetrahydrobenzo[d]thiazol-2-yl)acetamide] | 0.26 | > 125 | – | –
6 | COc1ccccc1OCC(=O)Nc1nc2ccccc2s1 [Compound 187, N-(Benzo[d]thiazol-2-yl)-2-(2-methoxyphenoxy)acetamide] | ≥ 25 | > 100 | 45 | > 100
7 | COc1cccc2sc(NC(=O)COc3cccc4c3OC(C)(C)C4)nc12 [Compound 146, 2-((2,2-Dimethyl-2,3-dihydrobenzofuran-7-yl)oxy)-N-(4-methoxybenzo[d]thiazol-2-yl)acetamide] | 1.69 | > 10 | – | –
8 | CCc1cccc(NC(=O)COc2cccc3c2OC(C)(C)C3)n1 [Compound 158, 2-((2,2-Dimethyl-2,3-dihydrobenzofuran-7-yl)oxy)-N-(6-ethylpyridin-2-yl) acetamide] | 13 | > 125 | – | –
9 | Cc1csc(NC(=O)COc2cccc3cc[nH]c23)n1 [Compound 134, 2-((1H-Indol-7-yl)oxy)-N-(4-methylthiazol-2-yl)acetamide] | 11 | > 100 | – | –
10 | Cc1csc(N(CCc2ccccc2)C(=O)COc2cccc3c2OC(C)(C)C3)n1 [Compound 50, 2-((2,2-Dimethyl-2,3-dihydrobenzofuran-7-yl)oxy)-N-(4-methylthiazol-2-yl)-N-phenethylacetamide] | 14 | > 125 | – | –
11 | Cc1csc(N(C(=O)COc2cccc3c2OC(C)(C)C3)c2ccc(F)cc2)n1 [Compound 58, 2-((2,2-Dimethyl-2,3-dihydrobenzofuran-7-yl)oxy)-N-(4-fluorophenyl)-N-(4-methylthiazol-2-yl)acetamide] | 0.29 | > 100 | – | –
12 | C=C(C)c1ccc(NC(=O)COc2cccc3c2OC(C)(C)C3)nn1 [Compound 86, 2-((2,2-Dimethyl-2,3-dihydrobenzofuran-7-yl)oxy)-N-(6-(prop-1-en-2-yl)pyridazin-3-yl)acetamide] | 1.1 | > 100 | – | –
13 | C=Cc1ccc(NC(=O)COc2cccc3c2OC(C)(C)C3)nn1 [Compound 84, 2-((2,2-Dimethyl-2,3-dihydrobenzofuran-7-yl)oxy)-N-(6-vinylpyridazin-3-yl)acetamide] | 0.89 | > 100 | – | –
14 | CC1(C)Cc2cccc(OCC(=O)Nc3cccc4cnccc34)c2O1 [Compound 14, 2-((2,2-Dimethyl-2,3-dihydrobenzofuran-7-yl)oxy)-N-(isoquinolin-5-yl) acetamide] | > 25 | > 100 | 18 | > 100
15 | COc1ccccc1CCC(=O)N(C)c1nc2c(s1)CCCC2 [Compound 110, 3-(2-Methoxyphenyl)-N-methyl-N-(4,5,6,7-tetrahydrobenzo[d]thiazol-2-yl) propanamide] | 4.1 | > 125 | – | –
16 | Cc1nccc(NC(=O)COc2cccc3c2OC(C)(C)C3)n1 [Compound 29, 2-((2,2-Dimethyl-2,3-dihydrobenzofuran-7-yl)oxy)-N-(2-methylpyrimidin-4-yl)acetamide] | > 25 | > 100 | 65 | > 100
17 | Cc1csc(NC(=O)COc2ccccc2OC(C)C)n1 [Compound 140, 2-(2-isopropoxyphenoxy)-N-(4-methylthiazol-2-yl)acetamide] | 14 | > 125 | – | –
18 | CN(C(=O)COc1cccc2[nH]ccc12)c1nc2c(s1)CCCC2 [Compound 111, 2-((1H-Indol-4-yl)oxy)-N-methyl-N-(4,5,6,7-tetrahydrobenzo[d]thiazol-2-yl) acetamide] | 0.18 | > 125 | – | –

Row | SMILES | EC50 [1] [µM] | CC50 at 48 h [2] [µM] | activity at 100 µM [1] [%] | CC50 [2] [µM]
19 | Cc1cccc2sc(NC(=O)COc3cccc4c3OC(C)(C)C4)nc12 [Compound 184, 2-((2,2-Dimethyl-2,3-dihydrobenzofuran-7-yl)oxy)-N-(4-methylbenzo[d]thiazol-2-yl)acetamide] | 3.3 | > 90 | – | –
20 | CCOc1ccccc1OCC(=O)N(C)c1nc2c(s1)CCCC2 [Compound 112, 2-(2-Ethoxyphenoxy)-N-methyl-N-(4,5,6,7-tetrahydrobenzo[d]thiazol-2-yl) acetamide] | 0.22 | > 125 | – | –
21 | CC1(C)Cc2cccc(OCC(=O)Nc3nc4c(F)c(F)ccc4s3)c2O1 [Compound 6, N-(4,5-Difluorobenzo[d]thiazol-2-yl)-2-((2,2-dimethyl-2,3-dihydrobenzofuran-7-yl)oxy)acetamide] | 6.3 | 36 | – | –
22 | Cc1nc(NC(=O)COc2cccc3c2OC(C)(C)C3)ccc1Br [Compound 72, N-(5-Bromo-6-methylpyridin-2-yl)-2-((2,2-dimethyl-2,3-dihydrobenzofuran-7-yl)oxy)acetamide] | 1.4 | > 100 | – | –
23 | CC1(C)Cc2cccc(OCC(=O)N(Cc3ccc[nH]3)c3nc4c(s3)CCCC4)c2O1 [Compound 51, N-((1H-Pyrrol-2-yl)methyl)-2-((2,2-dimethyl-2,3-dihydrobenzofuran-7-yl)oxy)-N-(4,5,6,7-tetrahydrobenzo[d]thiazol-2-yl)acetamide] | 0.015 | > 125 | – | –
24 | CCc1ccc(N(C)C(=O)COc2cccc3c2OC(C)(C)C3)nn1 [Compound 83, 2-((2,2-Dimethyl-2,3-dihydrobenzofuran-7-yl)oxy)-N-(6-ethylpyridazin-3-yl)-N-methylacetamide] | 13 | > 125 | – | –
25 | Cc1ccc(N(Cc2ccccn2)C(=O)COc2cccc3c2OC(C)(C)C3)nc1 [Compound 48, 2-((2,2-Dimethyl-2,3-dihydrobenzofuran-7-yl)oxy)-N-(5-methylpyridin-2-yl)-N-(pyridin-2-ylmethyl)acetamide] | 21 | > 100 | – | –
26 | Cc1csc(N(C(=O)COc2cccc3c2OC(C)(C)C3)c2ccc(Cl)cc2)n1 [Compound 59, N-(4-Chlorophenyl)-2-((2,2-dimethyl-2,3-dihydrobenzofuran-7-yl)oxy)-N-(4-methylthiazol-2-yl)acetamide] | 0.86 | > 100 | – | –
27 | Cc1csc(N(C(=O)COc2cccc3c2OC(C)(C)C3)c2cnccn2)n1 [Compound 90] | > 25 | > 100 | 31 | > 100
28 | COc1c(C)cccc1OCC(=O)N(C)c1nc2c(s1)CCCC2 [Compound 119, 2-(2-Methoxy-3-methylphenoxy)-N-methyl-N-(4,5,6,7-tetrahydrobenzo[d]thiazol-2-yl)acetamide] | 0.78 | > 125 | – | –
29 | Cc1cccc(CN(C(=O)COc2cccc3c2OC(C)(C)C3)c2nc3c(s2)CCCC3)n1 [Compound 39, 2-((2,2-Dimethyl-2,3-dihydrobenzofuran-7-yl)oxy)-N-((6-methylpyridin-2-yl)methyl)-N-(4,5,6,7-tetrahydrobenzo[d]thiazol-2-yl)acetamide] | 0.02 | > 100 | – | –
30 | Cc1c(Cl)cccc1OCC(=O)N(C)c1nc2c(s1)CCCC2 [Compound 129, 2-(3-Chloro-2-methylphenoxy)-N-methyl-N-(4,5,6,7-tetrahydrobenzo[d]thiazol-2-yl)acetamide] | > 25 | > 125 | – | –
31 | CC1(C)Cc2cccc(OCC(=O)Nc3nc4c(s3)COCC4)c2O1 [Compound 175, N-(6,7-Dihydro-4H-pyrano[4,3-d]thiazol-2-yl)-2-((2,2-dimethyl-2,3-dihydrobenzofuran-7-yl)oxy)acetamide] | 1.2 | 10 | – | –
32 | CC1(C)Cc2cccc(OCC(=O)Nc3nc(C(=O)N4CC[C@H](CO)C4)cs3)c2O1 [Compound 152, (S)-2-((2,2-Dimethyl-2,3-dihydrobenzofuran-7-yl)oxy)-N-(4-(3-(hydroxymethyl)pyrrolidine-1-carbonyl)thiazol-2-yl)acetamide] | > 25 | > 90 | 54 | > 90
33 | COc1ccccc1N(C(=O)COc1cccc2c1OC(C)(C)C2)c1nc(C)cs1 [Compound 55, 2-((2,2-Dimethyl-2,3-dihydrobenzofuran-7-yl)oxy)-N-(2-methoxyphenyl)-N-(4-methylthiazol-2-yl)acetamide] | 0.21 | > 125 | – | –
34 | COc1c(OCC(=O)N(C)c2nc3c(s2)CCCC3)cccc1C1CC1 [Compound 120, 2-(3-Cyclopropyl-2-methoxyphenoxy)-N-methyl-N-(4,5,6,7-tetrahydrobenzo [d]thiazol-2-yl)acetamide] | 4.8 | > 125 | – | –
35 | O=C(COc1cccc2c1CCN2)Nc1nc2c(s1)CCCC2 [Compound 135, 2-(Indolin-4-yloxy)-N-(4,5,6,7-tetrahydrobenzo[d]thiazol-2-yl)acetamide] | 0.088 | > 125 | – | –
